The test has as its system tau protein. Description: Tau protein in vitro degradation assay (Western blot, Tau-13 antibody). Type of test: cell-based, human. The conditions noted are these: SK-N-SH cells, 72 hours of incubation; for Degradation activity (tau protein remaining; highest amount of degradation observed at any dosage) / Degradation activity* (highest amount of degradation observed at any dosage; tau protein remaining): tested at 300 nM, 100 nM, 33 nM and 11 nM, Western blot, Tau-13 antibody. The procedure:
Tau Protein In Vitro Degradation Assay
To determine effect of PROTACs on tau protein degradation SK-N-SH cells were seeded in a 24-well tissue culture-treated plate for at least 18-hours prior to compound addition. Tau PROTACs were evaluated for tau degradation by lysing the cells in lysis buffer with protease inhibitors following a 72-hour incubation with tau PROTACs at 1000 nM, 300 nM and 100 nM for Table 1 and 300 nM, 100 nM, 33 nM and 11 nM for Table 2. Cell lysates were run on standard SDS-PAGE gels, and tau levels were detected by Western blotting using Tau-13 antibody from Abcam (Cambridge, UK) that binds to all forms of human tau.
(In western blotting, separated proteins are transferred to a membrane and probed.)

As for `Cn1c2ccncc2c2ccc(-c3ccc(O[C@H]4C[C@H](OCCOCCCOCC5CN(c6ccc7c(c6)C(=O)N(C6CCC(=O)NC6=O)C7=O)C5)C4)nc3)cc21` (stereo partly drawn) [Compound 191, 2-(2,6-dioxopiperidin-3-yl)-5-(3-((3-(2-((1r,3r)-3-((5-(5-methyl-5H-pyrido[4,3-b]indol-7-yl)pyridin-2-yl)oxy)cyclobutoxy)ethoxy)propoxy)methyl)azetidin-1-yl)isoindoline-1,3-dione], the “Degradation activity (tau protein remaining; highest amount of degradation observed at any dosage)” value is “A (≤50% tau protein remaining after 72 hours of incubation with the test compound)”.

For `Cc1ncsc1-c1ccc([C@H](C)NC(=O)[C@@H]2C[C@@H](O)CN2C(=O)[C@@H](NC(=O)COCCOc2ccc(-c3ccc4c(c3)[nH]c3ccncc34)cn2)C(C)(C)C)cc1` [Compound 120, (2S,4R)-1-((S)-2-(2-(2-((5-(5H-pyrido[4,3-b]indol-7-yl)pyridin-2-yl)oxy)ethoxy)acetamido)-3,3-dimethylbutanoyl)-4-hydroxy-N—((S)-1-(4-(4-methylthiazol-5-yl)phenyl)ethyl)pyrrolidine-2-carboxamide], the “Degradation activity* (highest amount of degradation observed at any dosage; tau protein remaining)” value is given as “C (>80% tau protein remaining after 72 hours of incubation with the test compound)”.

Regarding `Cc1ncoc1-c1ccc(CNC(=O)[C@@H]2C[C@@H](O)CN2C(=O)[C@@H](NC(=O)COCCOCCOCCOCCN2CCN(c3ccn4c(n3)nc3ccccc34)CC2)C(C)(C)C)cc1` [Compound 12, (2S,4R)-1-((S)-17-(4-(benzo[4,5]imidazo[1,2-a]pyrimidin-2-yl)piperazin-1-yl)-2-(tert-butyl)-4-oxo-6,9,12,15-tetraoxa-3-azaheptadecanoyl)-4-hydroxy-N-(4-(4-methyloxazol-5-yl)benzyl)pyrrolidine-2-carboxamide], where the note is “tested at 1000 nM, 300 nM and 100 nM”, the “Activity* (highest amount of degradation observed at any dosage, as tau protein remaining)” value is reported as “C (>80% tau protein remaining after 72 hours of incubation with the test compound)”.

As for `CN(CCCO[C@H]1C[C@H](Oc2ccc(-c3ccc4c5cnccc5n(C)c4c3)cn2)C1)C(=O)COCC1CN(c2ccc3c(c2)C(=O)N(C2CCC(=O)NC2=O)C3=O)C1` (stereo partly drawn) [Compound 202, 2-((1-(2-(2,6-dioxopiperidin-3-yl)-1,3-dioxoisoindolin-5-yl)azetidin-3-yl)methoxy)-N-methyl-N-(3-((1r,3r)-3-((5-(5-methyl-5H-pyrido[4,3-b]indol-7-yl)pyridin-2-yl)oxy)cyclobutoxy)propyl)acetamide], the “Degradation activity (tau protein remaining; highest amount of degradation observed at any dosage)” value was “B (≤80% and >50% tau protein remaining after 72 hours of incubation with the test compound)”.

For the molecule `Cn1c2ccncc2c2ccc(-c3ccc(N4CCC(CCN5CCN(c6ccc7c(c6)CN(C6CCC(=O)NC6=O)C7=O)CC5)CC4)nc3)cc21` (stereo not drawn) [Compound 128, 3-(5-(4-(2-(1-(5-(5-methyl-5H-pyrido[4,3-b]indol-7-yl)pyridin-2-yl)piperidin-4-yl)ethyl)piperazin-1-yl)-1-oxoisoindolin-2-yl)piperidine-2,6-dione], the “Degradation activity* (highest amount of degradation observed at any dosage; tau protein remaining)” value is listed as “C (>80% tau protein remaining after 72 hours of incubation with the test compound)”.

For the molecule `Cn1c2ccncc2c2ccc(-c3ccc(O[C@H]4C[C@H](Oc5ccc(C#CCCCCOc6ccc7c(c6)C(=O)N(C6CCC(=O)NC6=O)C7=O)cn5)C4)nc3)cc21` (stereo partly drawn) [Compound 102, 2-(2,6-dioxopiperidin-3-yl)-5-((6-(6-((1r,3r)-3-((5-(5-methyl-5H-pyrido[4,3-b]indol-7-yl)pyridin-2-yl)oxy)cyclobutoxy)pyridin-3-yl)hex-5-yn-1-yl)oxy)isoindoline-1,3-dione], the “Degradation activity* (highest amount of degradation observed at any dosage; tau protein remaining)” value is on record as “C (>80% tau protein remaining after 72 hours of incubation with the test compound)”.

In the case of `Cn1c2ccncc2c2ccc(-c3ccc(O[C@H]4C[C@H](C(=O)N5CC6(CC(OCCCCOc7ccc8c(c7)C(=O)N(C7CCC(=O)NC7=O)C8=O)C6)C5)C4)nc3)cc21` (stereo partly drawn) [Compound 157, 2-(2,6-dioxopiperidin-3-yl)-5-(4-((2-((1r,3r)-3-((5-(5-methyl-5H-pyrido[4,3-b]indol-7-yl)pyridin-2-yl)oxy)cyclobutane-1-carbonyl)-2-azaspiro[3.3]heptan-6-yl)oxy)butoxy)isoindoline-1,3-dione], the “Degradation activity* (highest amount of degradation observed at any dosage; tau protein remaining)” value is on record as “C (>80% tau protein remaining after 72 hours of incubation with the test compound)”.

On to `O=C1CCC(N2C(=O)c3ccc(OCCCc4ccc(N5CCN(CCCc6ccc(-c7ccc8c(c7)[nH]c7ccncc78)cn6)CC5)nc4)cc3C2=O)C(=O)N1` (stereo not drawn) [Compound 55, 5-(3-(6-(4-(3-(5-(5H-pyrido[4,3-b]indol-7-yl)pyridin-2-yl)propyl)piperazin-1-yl)pyridin-3-yl)propoxy)-2-(2,6-dioxopiperidin-3-yl)isoindoline-1,3-dione], for which the “Degradation activity* (highest amount of degradation observed at any dosage; tau protein remaining)” value is on record as “C (>80% tau protein remaining after 72 hours of incubation with the test compound)”.

Take `O=C1CCC(N2C(=O)c3ccc(OCCCc4ccc(O[C@H]5C[C@H](Oc6ccc(-c7ccc8c(c7)[nH]c7ccncc78)cn6)C5)cn4)cc3C2=O)C(=O)N1` (stereo partly drawn) [Compound 77, 5-(3-(5-((1r,3r)-3-((5-(5H-pyrido[4,3-b]indol-7-yl)pyridin-2-yl)oxy)cyclobutoxy)pyridin-2-yl)propoxy)-2-(2,6-dioxopiperidin-3-yl)isoindoline-1,3-dione]: the “Degradation activity* (highest amount of degradation observed at any dosage; tau protein remaining)” value was “C (>80% tau protein remaining after 72 hours of incubation with the test compound)”.

Turning to `Cn1c2ccncc2c2ccc(-c3ccc(O[C@H]4C[C@H](OC5CCN(c6cccc(C#CCOc7ccc8c(c7)C(=O)N(C7CCC(=O)NC7=O)C8=O)c6)CC5)C4)nc3)cc21` (stereo partly drawn) [Compound 198, 2-(2,6-dioxopiperidin-3-yl)-5-((3-(3-(4-((1r,3r)-3-((5-(5-methyl-5H-pyrido[4,3-b]indol-7-yl)pyridin-2-yl)oxy)cyclobutoxy)piperidin-1-yl)phenyl)prop-2-yn-1-yl)oxy)isoindoline-1,3-dione], the “Degradation activity (tau protein remaining; highest amount of degradation observed at any dosage)” value is recorded as “A (≤50% tau protein remaining after 72 hours of incubation with the test compound)”.

On to `Cn1c2ccncc2c2ccc(-c3ccc(C#CCN4CCN(CCCOC5CN(c6ccc7c(c6)C(=O)N(C6CCC(=O)NC6=O)C7=O)C5)CC4)nc3)cc21` (stereo not drawn) [Compound 76, 2-(2,6-dioxopiperidin-3-yl)-5-(3-(3-(4-(3-(5-(5-methyl-5H-pyrido[4,3-b]indol-7-yl)pyridin-2-yl)prop-2-yn-1-yl)piperazin-1-yl)propoxy)azetidin-1-yl)isoindoline-1,3-dione], for which the “Degradation activity* (highest amount of degradation observed at any dosage; tau protein remaining)” value is given as “C (>80% tau protein remaining after 72 hours of incubation with the test compound)”.

For `Cn1c2ccncc2c2ccc(-c3ccc(OCCCOc4ccc(C#CCCCCOc5ccc6c(c5)C(=O)N(C5CCC(=O)NC5=O)C6=O)cn4)nc3)cc21` (stereo not drawn) [Compound 146, 2-(2,6-dioxopiperidin-3-yl)-5-((6-(6-(3-((5-(5-methyl-5H-pyrido[4,3-b]indol-7-yl)pyridin-2-yl)oxy)propoxy)pyridin-3-yl)hex-5-yn-1-yl)oxy)isoindoline-1,3-dione], the “Degradation activity* (highest amount of degradation observed at any dosage; tau protein remaining)” value is listed as “C (>80% tau protein remaining after 72 hours of incubation with the test compound)”.

The values above are taken from patent publication US11458123B2 (Arvinas, Inc., priority 2016, dated 2022).
